The source of these data is PMC9570207, “Pharmacokinetics of Myo-Inositol in a Wistar Rat Animal Model” (International Journal of Molecular Sciences, 2022).

On the set-up of series [1]: method as in PMID 32650579. The conditions noted are these: cited from earlier work.
In a further series the test system is systolic blood pressure. Details: method as in PMID 33113433. To be noted: 3 mg/kg, Wistar rats; cited from earlier work.
Series [2] has as its system angiotensin-converting enzyme. Details: method as in PMID 33113433. The conditions noted are these: cited from earlier work.
The conditions of series [3]: rat, in vivo, po, 25 mg/kg; cited from earlier work.
The test system of series [4] is alkaline phosphatases from bovine intestinal mucosa. Details: method as in doi:10.1016/S0928-0987(97)00019-5. To be noted: bovine intestinal alkaline phosphatase; cited from earlier work.
Series [5] is described as follows: Pharmacokinetics of myo-inositol in serum after oral gavage, one-compartment PK model. The conditions noted are these: 2 g/kg oral. The format is in vivo, Wistar rat. Here is the method:
The experiment was performed on male Wistar rats (n = 9). We used male Wistar rats in our study because hormone changes throughout the female estrus cycle may have caused female rats to react differently, making them unpredictable and providing variable results during repeated experiments. All rats were 6 weeks old and had no morphological features deviating from the standard Wistar animal model. Animals were housed in a temperature-controlled room with a 12 h light/dark cycle and free access to water and food. The study was conducted in compliance with the Local Ethics Committee for Animal Experiments in Olsztyn. Each animal received a solution of myo-inositol (2 g/kg) in distilled water by oral gavage (Agnthos, curved gastric probe, 16G, 3 mm, 75 mm tip). The animals were fasted before the administration of myo-inositol (12 h since the last meal). Food was allowed for 2 h after administration of the compound. Access to water was unlimited. In order to reduce the amount of blood collected from a single animal, the animals were divided into three groups (n = 3).
For removing of proteins, 160 μL of acetonitrile (containing […] of xylitol, as an internal standard) was added to 50 μL of rat plasma and the sample was shaken for 5 min (1300 rpm, Vortex Genie 2, Scientific Industries, Bohemia, NY, USA). After centrifugation (20,000× g at 4 °C for 10 min), the supernatant was transferred into glass chromatographic vials and concentrated in a speed vacuum evaporator to dryness. Dry residues were derivatized with a mixture of trimethylsilylimidazole (TMSI) and pyridine (1:1, v/v). TMS-derivatives of myo-inositol were analyzed by the high-resolution gas chromatography method on a gas chromatograph GC2010Plus (Shimadzu, Tokyo, Japan) with a capillary column ZEBRON ZB-1 (15 m length, 0.25 mm diameter and 0.1 μm film thickness, Phenomenex, Torrance, CA, USA). The injector temperature was 325 °C and the initial column oven temperature was 150 °C. Helium was used as a carrier gas (at a flow rate of 1.18 mL min^−1). Afterwards, the sample injection (1 μL, in a split ratio 10:1) was ramped sequentially to 200 °C at a rate of 20 °C min^−1, to 300 °C at 30 °C min^−1 and to 335 °C at 20 °C min^−1. The final temperature was held for 2.42 min and the total time of analysis was 10 min. The detector was maintained at 350 °C. Myo-inositol was quantified by using the standard: myo-inositol from Sigma. The content of myo-inositol was calculated from the standard curves of appropriate components.
The data fitting was performed with NONMEM software (Version 7.3.0; ICON Development Solutions, Ellicot City, MD, USA) and the Gfortran compiler 9.0. NONMEM runs were executed using Wings for NONMEM (WFN730; http://wfn.sourceforge.net). The NONMEM data processing and plots were performed in Matlab Software (Version 0.1; The MathWorks, Natick, MA, USA). The schematic representation of the PK model is given in Figure 4. dA/dt=−ka∗AA(0)=DPO dX/dt=k−CL/F/V/F∗A+ka∗AX(0)=C0∗V/F where A and X denote the amount of myo-inositol in the absorption and central compartment, F denotes bioavailability, DPO denotes an oral dose of myo-inositol, ka denotes absorption rate constant, kin denotes an endogenous input of myo-inositol, CL denotes clearance, V denotes volume of distribution, and C0 denotes endogenous concentration of myo-inositol. CL and V were estimated as apparent due to uncertain bioavailability (CL/F and V/F). The steady-state concentration of myo-inositol implies the following relationship: k=C0∗CL/F
The concentration of myo-inositol in serum is given by: C=X/V/F
The observed concentrations (Cobs) were related to model predictions through the following equation (proportional residual error model): Cobs=C∗(1+ε) where ε is a normal random variable with standard deviation σ.

[6] abbreviates: 100 mg/kg oral, male Wistar rats, liver.

Like-named read-outs stand apart in the source and are kept apart here.

Take `CO[C@H]1[C@H](O)[C@@H](O)[C@@H](O)[C@H](O)[C@@H]1O` [DP, D-pinitol]: the “Time at which plasma DP level became detectable” value in series [1] (100 mg/kg oral, 18 h food-deprived male Wistar rats, plasma) is given as 10 min. In series [1] (setting [6]), the “Time at which liver concentration became detectable” value is 30 min and the “Time of peak liver concentration” value was 120 min. The “Time of plasma peak” value in series [1] (100 mg/kg oral, male Wistar rats, plasma) is listed as 1 h. For the same compound, in series [1] (500 mg/kg oral, Wistar rats, liver), the “Time of peak in liver” value is given as 120 min. Also, the “Time of peak in plasma” value in series [1] (500 mg/kg oral, Wistar rats, plasma) is recorded as 120 min. In series [1] (oral DP, Wistar rats, liver), the “Accumulation in the liver” value is given as “no accumulation was detected” and the “Half-life time, liver” value was 2.57 h. The “Half-life time, plasma” value in series [1] (oral DP, Wistar rats, plasma) is 1.8 h. Besides, the “Time after which completely cleared” value in series [1] (oral DP, Wistar rats) is 6 h.
Regarding `COC1[C@H](O)[C@H](O)C(O)[C@H](O)[C@H]1O` (stereo partly drawn) [LB, L-(+)-bornesitol], the “Effect on systolic blood pressure” value in the series with systolic blood pressure was “reduced the systolic blood pressure”. In addition, the Angiotensin-converting enzyme inhibition result in series [2] is “potent”. Further, in series [3], the “Dose proportionality of peak concentration and AUC” value is “non-linear pharmacokinetics”; the “Time to peak plasma concentration” value is recorded as “approximately 1 h”; the half-life was 1.202 to 2.0615 h.
Consider `O=P(O)(O)OC1[C@H](OP(=O)(O)O)[C@H](O)C(O)[C@H](O)[C@H]1OP(=O)(O)O` (stereo partly drawn) [a-trinositol, d-myo-inositol 1,2,6-trisphosphate], for which the “Dephosphorylation by intestinal enzymes” value in series [4] is recorded as “extensive dephosphorylation”.
Take `O[C@H]1[C@H](O)[C@@H](O)[C@H](O)[C@@H](O)[C@H]1O` [myo-inositol]: the “Evidence of harm from the dosage during the study” value in series [5] (Wistar rats) is “no significant evidence of harm”. Also, in series [5] (Wistar rats), the “Time after which the level of MI started to drop” value was 2 h. For the same compound, in series [5] (Wistar rats), the “Time of highest peak of MI after administration” value turned out to be 1 h. In addition, in series [5] (Wistar rats, 24 h), the “Serum level approximately after 24 h compared with before administration” value is on record as “still higher than before administration”. Moreover, the k el in series [5] (male, rat, serum, secondary parameter, Wistar rats, read-out: Kel, Elimination rate constant, (CL/F)/(V/F) (converted)) was 4.72e-05 s⁻¹. Also, the half-life in series [5] (male, rat, serum, secondary parameter, Wistar rats, read-out: T0.5, Biological half-life, ln(2)/kel (converted)) was 4.08 h. For the same compound, the “Mean MI in Rat Serum” value in series [5] (rat 1A (ID:1), group 1, times 0, 0.25, 0.5, 1, 24 h) is on record as 45.69 µg/mL; in series [5] (rat 1B (ID:4), group 2, times 0, 2, 4, 8, 12, 24 h) it was 45.70 µg/mL; in series [5] (rat 1C (ID:7), group 3, times 0, 1.5, 36, 48 h), 46.23 µg/mL; in series [5] (rat 2A (ID:2), group 1, times 0, 0.25, 0.5, 1, 24 h), 60.00 µg/mL; in series [5] (rat 2B (ID:5), group 2, times 0, 2, 4, 8, 12, 24 h), 46.23 µg/mL; in series [5] (rat 2C (ID:8), group 3, times 0, 1.5, 36, 48 h), 49.38 µg/mL. The “Mean MI in Rat Serum” value turned out to be 57.46 µg/mL in series [5] (rat 3A (ID:3), group 1, times 0, 0.25, 0.5, 1, 24 h); 39.86 µg/mL in series [5] (rat 3B (ID:6), group 2, times 0, 2, 4, 8, 12, 24 h); 38.33 µg/mL in series [5] (rat 3C (ID:9), group 3, times 0, 1.5, 36, 48 h). Besides, the “AUC, Area under concentration–time curve, F·D/CL” value in series [5] (secondary parameter, Wistar rats) was determined as 2.34 mg·h/L/kg.
